Source: US20030100548A1, “Arylpiperazines and their use as metallaproteinase inhibiting agents (mmp)” (priority 2000, published 2003)

- melting point: 73 °C
SMILES: O=S(=O)(CC(CS)Cc1ccccc1)N1CCN(c2ccc(F)cc2)CC1 (stereo not shown) [Example 1, N-(4-fluorophenyl)-N′-(2-benzyl-3-mercaptopropane-1-sulphonyl)-piperazine]
